For the assay, the system named is 5'-biotin NRAS-G4 (RNA, G4) UGUGGGAGGGGCGGGUCUGGG
In words: SPR. Particulars: K+ 100 mM; 10 mM Tris pH 6.9, 0.005% Tween 20, 5% DMSO; Langmuir 1:1 fit.

`CN(C)c1ccc(Nc2c3ccc(NC(=O)CCN4CCCC4)cc3nc3cc(NC(=O)CCN4CCCC4)ccc23)cc1`: the KD (usually the concentration at which binding is half-saturated) was determined as 79 ± 1.2 nM.

The values are drawn from article PMC11623308 (2023).
